Here are results for one molecule from US5439933A (priority 1993, dated 1995).

pIC50: −log10 of the molar value. Values after ≈ are worked out from the molar mass of the structure shown. “Also recorded” adds a separate entry of the source.

Data set [1] concerns L1210 murine leukemia cells. The data set is described as follows: Cell proliferation assay (cell counts), L1210. The format is cell-based. The conditions noted are these: Mus musculus, L1210, 72 h. As for the experimental part:
(§1) Tolytoxin and the other new scytophycin compounds are potent anticancer and antifungal agents. The cytotoxicity of tolytoxin and other new scytophycin compounds was determined using a cell proliferation assay, which tested the effect of the compounds on increases in cell numbers.
(§2) Cell lines were grown in plastic dishes (Falcon) in Eagle's basal medium supplemented with 5% newborn calf serum (KB), Fisher's medium supplemented with 10% horse serum (L1210), Dulbecco's modified Eagle's medium supplemented with 5% heat-inactivated fetal calf serum (LoVo), minimal essential medium supplemented with 2% heat-inactivated chicken serum (HEp-2), RPMI-1640 supplemented with 10% heat-inactivated fetal calf serum (T-47D, COLO-201) or 20% heat-inactivated fetal calf serum (HL-60, KATO-III), or McCoy's 5A supplemented with 10% heat-inactivated fetal calf serum (HBL-100). All cell culture media were supplemented with 50 μg/ml gentamycin sulfate. The cultures were incubated at 37° C. in a humidified atmosphere containing 5% carbon dioxide.
Cultures were exposed to graded concentrations of tolytoxin and reincubated for 72 hours in the presence of tolytoxin. Three dishes were used for each treatment. Cell numbers were determined by hemacytometer counts. The IC50 for each cell line was determined by plotting the logarithm of the tolytoxin concentration versus growth (cell number as a percentage of the control) of the treated cells.
The other new scytophycin compounds are also potent cytotoxins. For example, the IC50 of the scytophycins against KB human epidermoid carcinoma, LoVo human adenocarcinoma, and L1210 murine leukemia were determined using the cell proliferation assay described for tolytoxin.

Data set [2] has as its system HEp-2 human epidermoid carcinoma cells. As to the kind of experiment: Cell proliferation assay (cell counts), HEp-2. The data set is classed as cell-based. The settings on record: Table 5, 72 hours. Here is the method:
as §1, §2
(§3) Cultures were exposed to graded concentrations of tolytoxin and reincubated for 72 hours in the presence of tolytoxin. […] Cell numbers were determined by hemacytometer counts. The IC50 for each cell line was determined by plotting the logarithm of the tolytoxin concentration versus growth (cell number as a percentage of the control) of the treated cells.

Data set [3] deals with HL-60 human promyelocytic leukemia cells. As to the kind of experiment: Cell proliferation assay (cell counts), HL-60. The settings on record: Table 5, 72 hours. The format is cell-based. Here is the method: as §1, §2, §3
For data set [4], the system named is T47-D human ductal carcinoma cells. The data set is described as follows: Cell proliferation assay (cell counts), T47-D. The conditions noted are these: T47D, Table 5, 72 hours. The format is cell-based. As for the experimental part:
as §1, §2, §3

Data set [5] deals with COLO-201 human colon adenocarcinoma cells. The data set is described as follows: Cell proliferation assay (cell counts), COLO-201. The format is cell-based. The settings on record: Table 5, 72 hours. As for the experimental part: as §1, §2, §3
Data set [6] concerns KATO-III human gastric carcinoma cells. The data set is described as follows: Cell proliferation assay (cell counts), KATO-III. The data set is classed as cell-based. The settings on record: Table 5, 72 hours. As for the experimental part:
as §1, §2, §3

In data set [7] the test system is Human ovarian carcinoma cells (SKOV3). The data set is described as follows: cells. The data set is classed as cell-based. The conditions noted are these: SK-OV-3, 48 h, read-out: IC50 SKOV3. Here is the method: Human ovarian carcinoma cells (SKOV3) and a subline made multi-drug resistant by slowly increasing vinblastine in the culture medium over the course of many passages (SKVLB) were grown in Earle's basal medium (BME) containing 10% fetal calf serum. The SKVLB cells were maintained in the presence of 1 µg/mL vinblastine. The multi-drug resistant cell line is resistant to adriamycin, vinblastine, actinomycin D, and colchicine.
Cell proliferation was estimated by measurement of protein content of the cultured cells, as described by Skehan et al. (1990). Cells were plated into 24-well plates at approximately 10% confluency in BME and were allowed to attach and recover for at least 24 hours. The cells were then treated with the scytophycins or appropriate control for 48 hours. After the incubation, the medium was removed from each well and cells fixed by addition of 10% (w/v) trichloroacetic acid (TCA) (4° C.). The cells were incubated at 4° C. for one hour and then washed five times with water to remove TCA. The TCA-fixed cells were then stained for 30 minutes with 0.4% (w/v) sulforhodamine B prepared in 1% acetic acid. Following the staining, the cell layers were washed four times with 1% acetic acid. The cell layer was dissolved in 10 mM unbuffered tris-hydroxymethylaminomethane base. Absorbance of the solution was determined at 564 nm. Antiproliferative activity is manifested as decreased production of cellular protein.

Data set [8] relates to SKVLB (multi-drug resistant subline of SKOV3). As to the kind of experiment: cells. The format is cell-based, Human.
The test system of data set [9] is Alternaria alternata 1715. The data set is described as follows: Antifungal agar dilution. The data set is classed as cell-based. The settings on record: Alternaria alternata, 1715, 48 h. Here is the method:
(§4) The new scytophycins are also useful as antifungal agents. Antimicrobial activity was determined by the agar dilution method. Tolytoxin was dissolved in 95% ethanol for addition to cooled, molten agar. Nystatin was solubilized in DMSO and diluted in distilled water. Appropriate solvent controls were also prepared. Fungal cultures were grown on Saboraud dextrose agar. Assay plates were incubated for 48 hours post-inoculation. Yeasts and filamentous fungi were incubated at 25° C.

Another data set relates to Aspergillus oryzae. The data set is described as follows: Antifungal agar dilution. The data set is classed as cell-based. The settings on record: 48 h. As for the experimental part:
as §4

The next data set concerns Bipolaris incurvata 2118. As to the kind of experiment: Antifungal agar dilution. The format is cell-based. The conditions noted are these: Bipolaris incurvata, 2118, 48 h. Here is the method: as §4
A general note: In agar dilution the substance is mixed into plates at graded concentrations.

Data set [10] deals with Calonectria critalarae 1809. The data set is described as follows: Antifungal agar dilution. The data set is classed as cell-based. The settings on record: 48 h. Here is the method: as §4
Data set [11] relates to Colletotrichum coccodes 1809. As to the kind of experiment: Antifungal agar dilution. The format is cell-based. The settings on record: Colletotrichum coccodes, 1809, 48 h. As for the experimental part:
as §4

A further data set has as its system Penicillium notatum. The data set is described as follows: Antifungal agar dilution. The data set is classed as cell-based. The settings on record: Penicillium chrysogenum, 48 h. As for the experimental part:
as §4

Data set [12] has as its system Phyllosticta capitalensis 689-5. The data set is described as follows: Antifungal agar dilution. The data set is classed as cell-based. The conditions noted are these: Phyllosticta capitalensis, 6895, 48 h. As for the experimental part:
as §4

A further data set concerns Rhizoctonia solani 1165. The data set is described as follows: Antifungal agar dilution. The data set is classed as cell-based. The settings on record: Rhizoctonia solani, 1165, 48 h. As for the experimental part:
as §4

For data set [13], the system named is Trichophyton mentagrophytes A23. As to the kind of experiment: Antifungal agar dilution. The settings on record: Trichophyton mentagrophytes, A23, 48 h. The data set is classed as cell-based. As for the experimental part:
as §4

Data set [14] in a line: Toxicity in mice, intraperitoneal. The conditions noted are these: mouse, in vivo, ip, Swiss Webster mice. As for the experimental part:
In view of the cytotoxic effects observed with the new scytophycins, an experiment was performed to determine the toxicity level in an animal model. Various doses of tolytoxin were administered to Swiss Webster mice by the intraperitoneal route.

Data set [15] has as its system Human epidermoid carcinoma (KB) cells. The data set is described as follows: Cell shape and nuclear protrusion by microscopy. The data set is classed as cell-based. Here is the method:
In the following procedure new scytophycins were employed to cause nuclear protrusion in mammalian cells. Human epidermoid carcinoma (KB) cells were plated on plastic tissue-culture dishes in Dulbecco's modified Eagle's medium at 1×10^5 cells per 60 mm dish. The cell cultures were incubated overnight at 37° C. in a humidified atmosphere of 95% air and 5% carbon dioxide to allow the cells to settle and become attached. Following the incubation, tolytoxin or the appropriate vehicle control was added in a volume of not more than 35 μL per 5 mL of culture medium. After an additional incubation period ranging from 1 to 4 hours, the culture medium was removed and the cell layer washed twice with phosphate-buffered saline (PBS), pH 7.2. The washed cell layer was stained for 15 minutes with 0.01% acridine orange in PBS. Following staining, the cell suspension was washed for 15 minutes with two changes of PBS to remove unbound stain and photographed on a Zeiss IM-35 photomicroscope equipped with brightfield and epifluorescence optics.

In the case of `COC1CC2C=CCC(CC(OC)C3(CO3)C(OC)CC(OC)C(C)C(C(C)C(O)C(C)CCC(=O)C(C)C(OC)C(C)/C=C/N(C)C=O)OC(=O)/C=C/C(C)=C/C1O)O2` (stereo not drawn) [Tolytoxin, 6-hydroxy-7-O-methylscytophycin B], the negative-log IC50 (pIC50) (as a rule, −log10 of the IC50, conventionally taken in molar units) in data set [1] was 8.41; in [2] it was 8.64; in data set [3], 8.32; in data set [4] it was 8.31; in data set [5], 9.28; in data set [6] it was 9.11. Besides, the pIC50 was 7.60 in data set [7] and 7.60 in data set [8] (Homo sapiens, SKVLB, 48 h, read-out: IC50 SKVLB). The Fold-Resistance in data set [8] (Table 7, SKVLB vs SKOV3, 2880 min) came to 1. The MIC (usually the least concentration at which growth counts as inhibited) in data set [9] was 4 nM (≈ 3.4 ng/mL); with Aspergillus oryzae, 0.5 nM (≈ 0.425 ng/mL); in the data set on Bipolaris incurvata 2118, 2 nM (≈ 1.7 ng/mL); in [10], 2 nM (≈ 1.7 ng/mL); in data set [11] it was 4 nM (≈ 3.4 ng/mL); in the data set on Penicillium notatum it was 0.25 nM (≈ 0.213 ng/mL). Besides, the MIC is 0.5 nM (≈ 0.425 ng/mL) in [12], 0.25 nM (≈ 0.213 ng/mL) against Rhizoctonia solani 1165 and 8 nM (≈ 6.8 ng/mL) in data set [13]. For the same molecule, the 50% lethal dose (LD50) (as a rule, the dose expected to kill half of the subjects tested) in data set [14] was ~1.5 mg/kg. Moreover, the “cell shape and surface appearance” value in [15] (4 nM, 1 hour) is “fibroblastoid cellular shape and the appearance of blebs or zeioses on the cell surfaces; also recorded: the cells have lost their normal extended fibroblastoid shape, and the appearance of blebs or zeioses on the cell surface is apparent”. The “migration of cell nucleus” value in data set [15] (8nM, 4 hours) is “the cell nuclei have migrated out of their respective cell bodies; also recorded: The cell nucleus has migrated outside the body of the cell and now occupies one of the zeiotic processes”.
